# Measured values: patent US6114517A, “Methods of modulating tumor necrosis factor α-induced expression of cell adhesion molecules” (Isis Pharmaceuticals Inc., priority 1998, dated 2000)
# Experiments:
# Format in all cases: cell-based, human
# [1] = tested on: JNK; experiment: TNF-α-stimulated JNK activity, in vitro kinase assay on extracts of treated cells; details: 48 hours recovery, TNF-α 5 or 15 minutes
# Experimental: (§1) To examine the effect of the c-raf antisense oligonucleotide (ISIS 12854, SEQ ID NO. 2) on ERK, JNK, and p38 MAPK activities stimulated by TNF-α, in vitro kinase assays were performed on extracts derived from cells treated with ISIS 12854 (SEQ ID NO. 2). Cells were treated with oligonucleotides and induced with cytokines. At the indicated time, cells were lysed on ice and debris was removed by centrifugation. Protein concentration was measured by Bradford assay. Lysate containing equal amounts of protein were incubated with primary antibody-agarose conjugates (ERK and p38 assay; Santa Cruz Biotechnology, Santa Cruz, Calif.), or with JNK1-specific or JNK2-specific antibodies (JNK assay; Upstate Biotechnology, Lake Placid, N.Y.), overnight at 4° C.
# (§2) For isoform-specific JNK assays, anti-rabbit IgG conjugated with agarose beads was added to cell extracts following JNK antibody treatment and wash steps and incubated for 2 hours at 4° C. […]
# (§3) Cells were treated with the c-raf antisense compound, ISIS 12854 (SEQ ID NO. 2), allowed to recover for 48 hours, at which time TNF-α was added for 5 or 15 minutes prior to cell lysis and initiation of the kinase assays. […] Suitable substrates and ATP were added to the immunoprecipitated kinase complexes and the reaction mixes were analyzed on SDS-PAGE. […]
# [2] = tested on: ERK; experiment: TNF-α-stimulated ERK activity, in vitro kinase assay on extracts of treated cells; details: 48 hours recovery, TNF-α 5 or 15 minutes
# Experimental: as §1, §2, §3
# [3] = tested on: p38 MAPK; experiment: TNF-α-stimulated p38 MAPK activity, in vitro kinase assay on extracts of treated cells; details: 48 hours recovery, TNF-α 5 or 15 minutes
# Experimental: as §1, §2, §3
# [4] = tested on: c-raf mRNA; experiment: c-raf mRNA levels by Northern blot in HMVEC
# Experimental: Human dermal microvascular cells (HMVEC-d; Clonetics, San Diego, Calif.) were cultivated in endothelial basal media (EBM, Clonetics) supplemented with 10% fetal bovine serum (HyClone, Logan, Utah). Cells were grown in 100 mm petri dishes until 70-80% confluent, then washed with PBS and OPTI-MEM (Life Technologies, Inc., Gaithersburg, Md.). The cells were then incubated in the presence of OPTI-MEM and […] LIPOFECTIN (a 1:1 (w/w) liposome formulation of the cationic lipid N-[1-(2,3-dioleyloxy)propyl]-n,n,n-trimethylammonium chloride (DOTMA), and dioleoyl phosphotidylethanolamine (DOPE) in membrane filtered water (Life Technologies, Gaithersburg, Md.), per 100 nM of oligonucleotide followed by addition of oligonucleotide at the appropriate concentrations.
# For determination of mRNA levels by Northern blot, total RNA was prepared from cells by the guanidinium isothiocyanate procedure or by the Qiagen RNAEASY method (Qiagen, Santa Clarita, Calif.) at the indicated times after initiation of oligonucleotide treatment. Northern blot analysis was performed as described in Current Protocols in Molecular Biology (Ausubel, F. M., et al., (eds), 1987, Greene Publishing Assoc. and Wiley Interscience, New York). A glyceraldehyde 3-phosphate dehydrogenase (G3PDH) probe was purchased from Clontech (Palo Alto, Calif., Catalog Number 9805-1). RNA was quantified and normalized to G3PDH mRNA levels using a Molecular Dynamic PHOSPHORIMAGER (Sunnyvale, Calif.).
# ISIS 12854 (SEQ ID NO. 2) is a 2'-O-methoxyethyl mixed backbone chimeric antisense oligonucleotide designed to hybridize with 3'-untranslated sequences contained within human c-raf mRNA. To determine whether this antisense oligonucleotide is effective as a c-raf inhibitor in endothelial cells, human dermal microvascular cells (HMVEC) were treated with ISIS 12854 (SEQ ID NO. 2) as described in Example 2. C-raf mRNA and protein expression was examined by northern and Western blot analysis. The c-raf cDNA probe was generated from the plasmid, p627 (American Type Culture Collection, Manassas, Va.; catalog #41050), following the supplied instructions. The c-raf antibody was obtained from Transduction Laboratories, Inc. (Lexington, Ky.).
substance,measurement,setting,value
ToCoCoCoGoCsCsTsGsTsGsAsCsAsToGoCoAoToT [ISIS 12854],JNK activity,[1],inhibited
same,ERK activity,[2],reduced
same,Activation of p38 MAPK,[3],not affected
same,% mRNA Expression (c-raf),[4]; 0.5 nM,67%
same,% mRNA Inhibition (c-raf),[4]; 0.5 nM,33%
same,% mRNA Expression (c-raf),[4]; 2.5 nM,31%
same,% mRNA Inhibition (c-raf),[4]; 2.5 nM,69%
same,% mRNA Expression (c-raf),[4]; 10 nM,15%
same,% mRNA Inhibition (c-raf),[4]; 10 nM,85%
same,% mRNA Expression (c-raf),[4]; 50 nM,10%
same,% mRNA Inhibition (c-raf),[4]; 50 nM,90%
same,% mRNA Expression (c-raf),[4]; 100 nM,13%
same,% mRNA Inhibition (c-raf),[4]; 100 nM,87%
same,% mRNA Expression (c-raf),[4]; 200 nM,3%
same,% mRNA Inhibition (c-raf),[4]; 200 nM,97%
same,IC50,[4]; read-out: IC50 for c-raf mRNA reduction,~2.5 nM
